Data: paper PMC11311870, “Catalytic Mode and Product Specificity of an α-Agarase Reveal Its Direct Catalysis for the Production of Agarooligosaccharides” (Foods, 2024)

Molecular target: T1, Cm-AGA (Catenovulum maritimum, UniProt A0A0J8H064)
T1 construct: gene XM47_01860
T1 sequence (A0A0J8H064 27-1466): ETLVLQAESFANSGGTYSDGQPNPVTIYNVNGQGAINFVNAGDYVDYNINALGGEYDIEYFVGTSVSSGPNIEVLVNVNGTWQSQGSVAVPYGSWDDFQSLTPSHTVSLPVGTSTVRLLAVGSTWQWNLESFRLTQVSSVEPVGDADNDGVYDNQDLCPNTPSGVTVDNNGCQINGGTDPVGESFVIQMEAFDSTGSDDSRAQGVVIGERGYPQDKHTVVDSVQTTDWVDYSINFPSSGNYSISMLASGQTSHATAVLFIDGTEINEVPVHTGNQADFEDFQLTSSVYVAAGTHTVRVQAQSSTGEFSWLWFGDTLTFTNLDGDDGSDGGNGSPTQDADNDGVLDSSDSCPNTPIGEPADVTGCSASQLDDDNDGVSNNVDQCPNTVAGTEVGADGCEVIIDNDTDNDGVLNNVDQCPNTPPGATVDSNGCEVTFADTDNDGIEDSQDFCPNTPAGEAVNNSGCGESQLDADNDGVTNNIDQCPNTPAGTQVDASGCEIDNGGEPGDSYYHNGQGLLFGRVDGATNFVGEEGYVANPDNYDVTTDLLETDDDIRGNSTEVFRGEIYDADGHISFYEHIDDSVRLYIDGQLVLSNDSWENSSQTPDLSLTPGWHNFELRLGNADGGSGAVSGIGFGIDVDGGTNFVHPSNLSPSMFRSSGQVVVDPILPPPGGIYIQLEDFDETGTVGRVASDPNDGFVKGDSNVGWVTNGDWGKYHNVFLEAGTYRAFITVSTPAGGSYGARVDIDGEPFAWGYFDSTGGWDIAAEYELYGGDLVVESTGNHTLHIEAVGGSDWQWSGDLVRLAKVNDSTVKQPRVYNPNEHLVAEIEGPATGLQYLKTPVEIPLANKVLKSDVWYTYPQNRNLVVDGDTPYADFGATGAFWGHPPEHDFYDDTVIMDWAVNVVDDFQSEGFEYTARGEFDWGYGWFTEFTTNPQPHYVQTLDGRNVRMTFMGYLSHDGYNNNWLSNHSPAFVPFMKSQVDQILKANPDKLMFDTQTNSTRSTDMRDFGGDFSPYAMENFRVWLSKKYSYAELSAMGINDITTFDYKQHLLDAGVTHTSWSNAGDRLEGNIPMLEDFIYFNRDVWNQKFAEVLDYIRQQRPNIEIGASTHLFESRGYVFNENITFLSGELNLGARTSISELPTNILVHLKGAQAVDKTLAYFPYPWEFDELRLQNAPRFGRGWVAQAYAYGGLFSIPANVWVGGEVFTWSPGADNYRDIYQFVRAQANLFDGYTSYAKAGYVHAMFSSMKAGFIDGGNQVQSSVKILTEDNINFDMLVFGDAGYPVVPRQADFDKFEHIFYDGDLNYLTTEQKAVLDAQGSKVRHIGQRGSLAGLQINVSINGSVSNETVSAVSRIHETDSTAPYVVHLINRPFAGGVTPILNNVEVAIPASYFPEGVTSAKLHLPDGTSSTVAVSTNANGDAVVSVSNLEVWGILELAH
Test: HPAEC-PAD product analysis
Type: biochemical
Details: pH not stated for this reaction (in water); 35 °C, 24 h; 5 mg/mL stock

OC[C@H]1O[C@@H](O[C@H]2[C@H]3OC[C@@H]2O[C@@H](O[C@H]2[C@@H](O)[C@@H](CO)O[C@@H](O[C@H]4[C@H]5OC[C@@H]4O[C@@H](O[C@H]4[C@@H](O)[C@@H](CO)OC(O)[C@@H]4O)[C@H]5O)[C@@H]2O)[C@H]3O)[C@H](O)[C@@H](O[C@@H]2O[C@H]3CO[C@@H]([C@@H]2O)[C@@H]3O)[C@H]1O (stereo partly shown) [NA6, neoagarohexaose]
HPAEC-PAD product analysis: the products of Cm-AGA-mediated NA6 hydrolysis were relatively complex (Figure 8D)
